{"source": "patent US20040147595A1", "about": "“Biofilm degrading or sloughing compositions and methods” (priority 2001, published 2004)", "assay_type_in_all_cases": "cell-based, Pseudomonas aeruginosa", "key": {"[1]": {"system": "las quorum sensing system (lasB-gfp(ASV) expression)", "test": "AHL and furanone bioassay, PlasB-gfp(ASV) Plac-lasR reporter in planktonic PAO-JP2", "protocol": "(§1) AHL and furanone bioassay. Strains were grown exponentially in LB or ABt medium supplemented with 0.5% glucose at 30° C., shading at 250 rpm. At an optical density of approximately 0.8. the cultures were diluted and split into subcultures in glass culture flasks. AHLs and furanone 56 were added to appropriate concentrations and the cultures were further incubated at 30° C. under vigorous shaking. Culture samples were retrieved at various time intervals and green fluorescence was measured with a fluorometer (model RF-1501, Shimadzu, Tokyo, Japan) set at an excitation wavelength of 475 nm and emission wavelength of 515 nm. Relative fluorescence was calculated as green fluorescence normalized to 1 ml culture divided by the optical density (OD600 nm.\nInitially, the lasB-gfp(ASV) translational fusion (OdDHL sensor) was thoroughly characterized with respect to its sensitivity and specificity. A culture of E. coli hosting the pMHLAS monitor plasmid was diluted and spilt into several subcultures which were then supplemented with AHLs at concentrations ranging from 0 to 1000 nM. […] When the pMHLAS based reporter system was hosted by PAO-JP2. the OdDHL concentration required for half-maximal activation of the lasB-gfp(ASV) fusion was 8 nM (data not shown). In single copy on the chromosome of PAO-JP2, the OdDHL concentration on required for half-maximal activation of lasB expression was approximately 250 nM (FIG. 2b). Green fluorescent cells were visible by epifluorescence microscopy at a minimal OdDHL concentration of 50 nM (FIG. 2c).\nNoteworthy, the inhibitory effect of furanone 56 was relieved at increased concentrations of OdDHL."}, "[2]": {"system": "las quorum sensing system (lasB-gfp(ASV) expression)", "test": "PlasB-gfp(ASV) reporter in planktonic wild type P. aeruginosa PAO1", "conditions": "for reduction in lasB(ASV) expression: wild type P. aeruginosa", "protocol": "as §1\nThe PlasB-gfp(ASV) reporter was inserted into the chromosome of wild type P. aeruginosa. […] The quorum size for lasB-gfp(ASV) induction corresponded to a cell density slightly above […] of 1.0, which is in agreement with other reports (Brumilk & Storey, 1992)."}, "[3]": {"system": "P. aeruginosa PAO-JP2", "test": "Growth of P. aeruginosa PAO-JP2", "conditions": "data not shown"}, "[4]": {"system": "lasB-gfp(ASV) reporter in P. aeruginosa PAO-JP2 biofilm", "test": "OdDHL-mediated signalling in PAO-JP2 flowcell biofilm, lasB-gfp(ASV) reporter, CSLM", "protocol": "(§2) P. aeruginosa biofilms. Biofilms were grown at 30° C. in three-dimensional flow cells (Christensen et al., 1999) with individual channel dimensions of 0.3×4×40 mm supplied With ABt minimal medium supplemented with 2% LB. The flow system was assembled and prepared as described by Christensen et al. (1999). The substratum consisted of a microscope glass coverslip (Knittel 24×50 mm st1, Knittel Glaser, Braunschweig, Germany). Cultures for inoculation of the flow channels were prepared in the following way: P. aeruginosa strains were streaked on LB plates with the appropriate antibiotics and incubated for 24 h at 37° C. From each plate a single colony was used for inoculation of 10 ml ABt with 10% LB. The cultures were grown at, 30° C. for 18 h before they were diluted to an OD600 nm of 0.1 in sterile 0.9% NaCl and used for inoculation of the flow channels. Medium flow was kept at a constant rate of 3 mL/h, equivalent to a mean flow velocity of 0.7 mm/s, using a Watson-Marlow 205S peristaltic pump (Watson-Marlow, Falmouth, England). Biofilms were grown for 24 hours before being shifted to media containing AHL and furanone.\n(§3) Scanning confocal laser microscopy (SCLM). Microscopic inspection and image acquisition were performed an a scanning confocal laser microscope (model TCS4D, Leica Lasertechnik GmbH, Heldelberg, Germany) equipped with a 63×/1.32-0.6 oil objective. The microscope was equipped with a motorized and programmable xy-stage, which was used for monitoring single colonies during the biofilm experiments. At the beginning of each online experiment, the microscope was programmed to track single randomly selected microcolonies; the sensitivity of photo multipliers and the laser intensity were adjusted and thereafter kept constant through out the duration of the experiments. Image scanning was carried out using the 488 nm and 568 nm lines of an Ar/Kr laser for detection of Gfp and Rfp, respectively. Visualization of captured images was performed using the IMARIS software package (Bitplane AG, Zúrich, Switzerland) running on a Silicon Graphics Indigo 2 workstation (Silicon Graphics, Mountain View, Calif. USA).\nInhibition of AHL-mediated signalling in P. aeruginosa biofilms. The lasB-gfp(ASV) reported was integrated into the chromosome of PAO-JP2 to ensure stable segregation and a constant gene dosage of the reported system. The strain was growth in flowcells for 24 hours in ABt-LB medium and a 10-15 μm thick biofilm developed. The media flow was subsequently switched to ABt-LB medium containing the appropriate AHL and furanone concentrations. The development of green fluorescence was monitored online by CSLM for 8 hours."}, "[5]": {"system": "P. aeruginosa PAO1 biofilm", "test": "Wild type P. aeruginosa PAO1 flowcell biofilm, lasB-gfp(ASV) reporter and Rfp tag, long term", "protocol": "as §2, §3\nFuranone 66 represses lasB-expression in wild type P. aeruginosa biofilms. Wild type P. aeruginosa (PAO1) carrying a chromosomally integrated lasB-gfp(ASV) reporter system was grown in flowcells similar to the PAO-JP2-based reporter strain. We focused on studying the effect of furanone 56 in loan term biofilm experiments. In favor of this approach is the observation by Davies et al. (1998) that quorum sensing is involved in maturation of P. aeruginosa biofilms (up to 2 weeks old). In order to support such longterm cultivation, the biofilm medium was modified to contain 0.3 mM glucose instead of 2% LB as a carbon source. In addition, the recently available Red Fluorescent Protein (Rfp) derived from the indopacific sea anemone Discosome was employed to provide a red fluorescent tag on the biofilm bacteria. A mini-Tn5 transposon with the dsred gene under control of the strong constitutive lac promoter was inserted into the chromosome of PAO1 containing the lasB reporter system.\nThe dual-labeled PAO1 strain was inoculated A grown in flowcells in the absence and presence of 5 μg/ml furanone 56. The flowcells were inspected daily for ten days and scanning confocal photomicrographs were captured (FIG. 6 & 7). For clarity, the green and red fluorescent signals from the same area of the biofilm are shown separately. Because the cells constitutively express Rfp, the red color correlates with cell mass, whereas the green fluorescence indicates active transcription of the lasB-gfp(ASV) reporter gene in response to on-going bacterial communication."}}}
{"smiles": "O=C1C=C/C(=C/Br)O1", "note": "[furanone 56]", "values": [{"measurement": "effect on lasB-gfp(ASV) expression", "setting": "[1]; 1.25 μ/ml (7.1 μM) furanone, range of OdDHL concentrations", "result": "inhibited lasB-gfp(ASV) expression at a wide range of OdDHL concentrations"}, {"measurement": "complete inhibition of lasB-gfp(ASV) expression", "setting": "[1]; any of the tested concentrations", "result": "complete inhibition was not attained at any of the tested concentrations"}, {"measurement": "reduction in lasB(ASV) expression", "setting": "[2]; 5 μg/ml (28.5 μM) furanone", "result": 40, "unit": "%"}, {"measurement": "reduction in lasB(ASV) expression", "setting": "[2]; 10 μg/ml furanone", "result": 60, "unit": "%"}, {"measurement": "reduction of transcription of the lasB promoter", "setting": "[2]; planktonic cultures of PAO1", "result": "approximately 2 fold"}, {"measurement": "effect on growth rate", "setting": "[3]", "result": "no effect on growth rate"}, {"measurement": "induction of green fluorescence in biofilm", "setting": "[4]; 40 nM OdDHL and 2 μl/ml furanone 56, 8 hours", "result": "did not lead to induction of green fluorescence"}, {"measurement": "induction of green fluorescence in biofilm", "setting": "[4]; 80 nM OdDHL and 2 μg/ml furanone 56", "result": "green fluorescence was induced"}, {"measurement": "induction of green fluorescence in biofilm", "setting": "[4]; 80 nM OdDHL and 4 μg/ml furanone, data not shown", "result": "Induction of green fluorescence was established"}, {"measurement": "green fluorescence in biofilm", "setting": "[4]; 4 μg/ml alone, data not shown", "result": "No green fluorescence was observed"}, {"measurement": "reporter system in biofilms", "setting": "[5]; 5 μg/ml furanone 56", "result": "partially shut down"}, {"measurement": "complete inhibition of the lasB-gfp(ASV) reporter in all biofilm bacteria", "setting": "[5]; concentrations with no effect on growth (<10 μg/ml)", "result": "not achievable"}, {"measurement": "bacterial signaling (green fluorescence)", "setting": "[5]; day 1, 5 μg/ml furanone 56", "result": "greatly reduced"}, {"measurement": "early biofilm formation", "setting": "[5]; day 1, 5 μg/ml furanone 56", "result": "not or only slightly affected"}, {"measurement": "green fluorescence of biofilm cells", "setting": "[5]; day 7, 5 μg/ml furanone 56", "result": "far less green fluorescence"}, {"measurement": "average biofilm thickness", "setting": "[5]; day 7, 5 μg/ml furanone 56 (untreated 61±6 μm)", "result": "23±4", "unit": "μm"}, {"measurement": "biofilm maturation", "setting": "[5]; wild type biofilm grown in the presence of furanone", "result": "failed to mature"}]}
